{
  "source": "paper PMC3964607",
  "about": "(Nuclear medicine and biology, 2013)",
  "key": {"[1]": {"test": "Biodistribution in normal rats", "format": "in vivo, rats (Sprague–Dawley)", "details": "mean ± SD; for Percent injected dose in blood: i.v. tail vein"}, "[2]": {"test": "Biodistribution in rats with renal pedicle ligation", "format": "in vivo, rats (Sprague–Dawley)"}, "[3]": {"details": "Sprague-Dawley rats; cited from earlier work"}, "[4]": {"details": "rats; cited from earlier work"}, "[5]": {"details": "rats with renal pedicle ligation, 60 min post-injection, mean ± SD, n=5"}},
  "data": [
    {"compound": "O=C(O)CNC(=O)c1ccccc1[131I]", "note": "[^131I-OIH, ^131I-o-iodohippurate]", "values": [
      {"measurement": "Percent injected dose in blood", "setting": "[1]; 10 min post-injection, n=7", "value": "5.1 ± 0.5", "unit": "% ID"},
      {"measurement": "Percent injected dose in bowel (intestines and stomach)", "setting": "[1]; 10 min post-injection, n=7", "value": "1.7 ± 0.5", "unit": "% ID"},
      {"measurement": "Percent injected dose in kidney", "setting": "[1]; 10 min post-injection, n=7", "value": "5.3 ± 1.2", "unit": "% ID"},
      {"measurement": "Percent injected dose in liver", "setting": "[1]; 10 min post-injection, n=7", "value": "3.3 ± 0.2", "unit": "% ID"},
      {"measurement": "Percent injected dose in urine", "setting": "[1]; 10 min post-injection, n=7", "value": "50.8 ± 5.2", "unit": "% ID"},
      {"measurement": "Percent injected dose in blood", "setting": "[1]; 60 min post-injection, n=5", "value": "0.8 ± 0.1", "unit": "% ID"},
      {"measurement": "Percent injected dose in bowel (intestines and stomach)", "setting": "[1]; 60 min post-injection, n=5", "value": "1.8 ± 0.3", "unit": "% ID"},
      {"measurement": "Percent injected dose in kidney", "setting": "[1]; 60 min post-injection, n=5", "value": "0.7 ± 0.4", "unit": "% ID"},
      {"measurement": "Percent injected dose in liver", "setting": "[1]; 60 min post-injection, n=5", "value": "0.6 ± 0.2", "unit": "% ID"},
      {"measurement": "Percent injected dose in urine", "setting": "[1]; 60 min post-injection, n=5", "value": "85.4 ± 3.1", "unit": "% ID"},
      {"measurement": "Percent injected dose remaining in the spleen, heart and lung", "setting": "[2]; rats with ligated renal pedicles, 60 min", "value": "less than 1%"},
      {"measurement": "Percent injected dose in blood", "setting": "[2]; [5]", "value": "15.1 ± 0.9", "unit": "% ID"},
      {"measurement": "Percent injected dose in bowel (intestines and stomach)", "setting": "[2]; [5]", "value": "7.6 ± 1.1", "unit": "% ID"},
      {"measurement": "Percent injected dose in kidney", "setting": "[2]; [5]", "value": "0.5 ± 0.2", "unit": "% ID"},
      {"measurement": "Percent injected dose in liver", "setting": "[2]; [5]", "value": "7.1 ± 0.6", "unit": "% ID"}
    ]},
    {"compound": "^125I-iothamalate", "values": [
      {"measurement": "Clearance as percentage of the clearance of ^131I-OIH", "setting": "[3]", "value": 40, "unit": "%"}
    ]},
    {"compound": "N#Cc1cc(C(=O)NCC(=O)O)ccc1[18F]", "note": "[^18F-CNPFH, ^18F-m-cyano-p-fluorohippurate]", "values": [
      {"measurement": "Route of elimination", "setting": "[4]", "value": "eliminated by both renal and hepatobiliary pathways"}
    ]},
    {"compound": "O=C(O)CNC(=O)c1ccc([18F])cc1", "note": "[^18F-PFH, ^18F-p-fluorohippurate]", "values": [
      {"measurement": "Route of elimination", "setting": "[4]", "value": "rapidly and exclusively cleared by the kidneys"}
    ]}
  ]
}
